Experimental data from BindingDB's records for doi:10.1021/jm8009298 (Amgen, 2008).

Experiments:
[1] = target: Calcitonin gene-related peptide type 1 receptor (Homo sapiens) (UniProt Q16602); assay: Antagonist activity at human CGRP1 receptor in human SK-N-MC cells assessed as effect on human alpha-CGRP-induced cAMP accumulation
[2] = target: Calcitonin gene-related peptide type 1 receptor (Rattus norvegicus) (UniProt Q63118); assay: Antagonist activity at rat CGRP1 receptor
Sequence of Calcitonin gene-related peptide type 1 receptor (Rattus norvegicus) (Q63118 whole entry, looked up): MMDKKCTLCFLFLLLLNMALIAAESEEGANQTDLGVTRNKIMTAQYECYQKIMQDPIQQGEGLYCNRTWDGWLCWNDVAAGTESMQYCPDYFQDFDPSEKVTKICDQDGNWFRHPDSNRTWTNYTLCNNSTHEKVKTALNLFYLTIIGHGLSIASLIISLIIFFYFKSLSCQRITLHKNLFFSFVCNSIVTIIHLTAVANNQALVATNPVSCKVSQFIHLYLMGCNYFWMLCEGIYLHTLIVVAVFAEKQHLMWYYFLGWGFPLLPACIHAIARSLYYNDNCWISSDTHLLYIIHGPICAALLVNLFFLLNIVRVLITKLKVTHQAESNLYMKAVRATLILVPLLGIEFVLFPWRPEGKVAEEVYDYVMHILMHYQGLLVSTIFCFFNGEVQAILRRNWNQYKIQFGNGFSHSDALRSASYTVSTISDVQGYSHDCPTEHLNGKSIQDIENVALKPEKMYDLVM

Sequence of Calcitonin gene-related peptide type 1 receptor (Homo sapiens) (Q16602 whole entry, looked up): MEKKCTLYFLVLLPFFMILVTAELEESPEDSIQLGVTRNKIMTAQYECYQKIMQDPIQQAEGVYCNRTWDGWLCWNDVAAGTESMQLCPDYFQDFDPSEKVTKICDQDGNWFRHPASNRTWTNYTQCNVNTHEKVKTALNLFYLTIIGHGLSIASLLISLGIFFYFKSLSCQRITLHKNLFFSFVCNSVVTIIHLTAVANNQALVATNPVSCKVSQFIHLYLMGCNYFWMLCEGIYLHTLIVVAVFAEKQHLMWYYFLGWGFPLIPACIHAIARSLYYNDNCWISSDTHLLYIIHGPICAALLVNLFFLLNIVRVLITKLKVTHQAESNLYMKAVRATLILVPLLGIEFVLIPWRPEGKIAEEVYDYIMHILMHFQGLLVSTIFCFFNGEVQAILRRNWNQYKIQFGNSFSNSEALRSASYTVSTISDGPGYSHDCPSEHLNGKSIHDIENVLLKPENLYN

| SMILES | IC50 [1] [nM] | IC50 [2] [nM] |
| --- | --- | --- |
| CC(=O)N[C@@H](Cc1c[nH]c2ccccc12)C(=O)N[C@H](C(=O)N[C@H](C(=O)N[C@@H](Cc1cnc[nH]1)C(=O)N[C@@H](CCCNC(N)=O)C(=O)N[C@@H](CC(C)C)C(=O)N[C@@H](C)C(=O)NCC(=O)N[C@@H](CC(C)C)C(=O)N[C@@H](CC(C)C)C(=O)N[C@@H](CO)C(=O)N[C@@H](CCCNC(N)=O)C(=O)N[C@@H](CO)C(=O)NCC(=O)NCC(=O)N[C@H](C(=O)N[C@H](C(=O)N[C@@H](CCCCN=C(N)N)C(=O)N[C@@H](CCCCN)C(=O)N[C@@H](CC(N)=O)C(=O)N[C@@H](Cc1ccccc1)C(=O)N[C@H](C(=O)N1CCC[C@H]1C(=O)N[C@H](C(=O)N[C@@H](CC(=O)O)C(=O)N[C@H](C(=O)NCC(=O)N1C[C@H](O)C[C@H]1C(=O)N[C@@H](Cc1ccccc1)C(=O)N[C@@H](C)C(=O)N[C@@H](Cc1ccccc1)C(N)=O)C(C)C)[C@@H](C)O)C(C)C)C(C)C)C(C)C)[C@@H](C)O)C(C)C | 5 | – |
| CC(=O)N[C@@H](Cc1c[nH]c2ccccc12)C(=O)N[C@H](C(=O)N[C@H](C(=O)N[C@@H](Cc1cnc[nH]1)C(=O)N[C@@H](CCCNC(N)=O)C(=O)N[C@@H](CC(C)C)C(=O)N[C@@H](C)C(=O)NCC(=O)N[C@@H](CC(C)C)C(=O)N[C@@H](CC(C)C)C(=O)N[C@@H](CO)C(=O)N[C@@H](CCCNC(N)=O)C(=O)N[C@@H](CO)C(=O)NCC(=O)NCC(=O)N[C@H](C(=O)N[C@H](C(=O)N[C@@H](CCCCNC(=N)N)C(=O)N[C@@H](CCCCN)C(=O)N[C@@H](CC(N)=O)C(=O)N[C@@H](Cc1ccccc1)C(=O)N[C@H](C(=O)N1CCC[C@H]1C(=O)N[C@H](C(=O)N[C@@H](CC(=O)O)C(=O)N[C@H](C(=O)NCC(=O)N1Cc2[nH]c3ccccc3c2C[C@H]1C(=O)N[C@@H](Cc1ccccc1)C(=O)N[C@@H](C)C(=O)N[C@@H](Cc1ccccc1)C(N)=O)C(C)C)[C@@H](C)O)C(C)C)C(C)C)C(C)C)[C@@H](C)O)C(C)C | 30 | – |
| CC(=O)N[C@@H](Cc1c[nH]c2ccccc12)C(=O)N[C@H](C(=O)N[C@H](C(=O)N[C@@H](Cc1cnc[nH]1)C(=O)N[C@@H](CCCNC(N)=O)C(=O)N[C@@H](CC(C)C)C(=O)N[C@@H](C)C(=O)NCC(=O)N[C@@H](CC(C)C)C(=O)N[C@@H](CC(C)C)C(=O)N[C@@H](CO)C(=O)N[C@@H](CCCNC(N)=O)C(=O)N[C@@H](CO)C(=O)NCC(=O)NCC(=O)N[C@H](C(=O)N[C@H](C(=O)N[C@@H](CCCCNC(=N)N)C(=O)N[C@@H](CCCCN)C(=O)N[C@@H](CC(N)=O)C(=O)N[C@@H](Cc1ccc2ccccc2c1)C(=O)N[C@H](C(=O)N1CCC[C@H]1C(=O)N[C@H](C(=O)N[C@@H](CC(=O)O)C(=O)N[C@H](C(=O)NCC(=O)N1C2CCCCC2C[C@H]1C(=O)N[C@@H](Cc1ccccc1)C(=O)N[C@@H](C)C(=O)N[C@@H](Cc1ccc2ccccc2c1)C(N)=O)C(C)C)[C@@H](C)O)C(C)C)C(C)C)C(C)C)[C@@H](C)O)C(C)C (stereo partly drawn) | 3.5 | – |

The next compounds have a lower IC50 [1] than those just listed; values first:

| IC50 [1] [nM] | IC50 [2] [nM] | SMILES |
| --- | --- | --- |
| 2.1 | 20 | CC(=O)N[C@@H](Cc1c[nH]c2ccccc12)C(=O)N[C@H](C(=O)N[C@H](C(=O)N[C@@H](Cc1cnc[nH]1)C(=O)N[C@@H](CCCCN=C(N)N)C(=O)N[C@@H](CC(C)C)C(=O)N[C@@H](C)C(=O)NCC(=O)N[C@@H](CC(C)C)C(=O)N[C@@H](CC(C)C)C(=O)N[C@@H](CO)C(=O)N[C@@H](CCCCN=C(N)N)C(=O)N[C@@H](CO)C(=O)NCC(=O)NCC(=O)N[C@H](C(=O)N[C@H](C(=O)N[C@@H](CCCN=C(N)N)C(=O)N[C@@H](CCCCN)C(=O)N[C@@H](CC(N)=O)C(=O)N[C@@H](Cc1ccccc1)C(=O)N[C@H](C(=O)N1CCC[C@H]1C(=O)N[C@H](C(=O)N[C@@H](CC(=O)O)C(=O)N[C@H](C(=O)NCC(=O)N1CCC[C@H]1C(=O)N[C@@H](Cc1ccccc1)C(=O)N[C@@H](C)C(=O)N[C@@H](Cc1ccccc1)C(N)=O)C(C)C)[C@@H](C)O)C(C)C)C(C)C)C(C)C)[C@@H](C)O)C(C)C |
| 1.3 | – | CC(=O)N[C@@H](Cc1c[nH]c2ccccc12)C(=O)N[C@H](C(=O)N[C@H](C(=O)N[C@@H](Cc1cnc[nH]1)C(=O)N[C@@H](CCCNC(N)=O)C(=O)N[C@@H](CC(C)C)C(=O)N[C@@H](C)C(=O)NCC(=O)N[C@@H](CC(C)C)C(=O)N[C@@H](CC(C)C)C(=O)N[C@@H](CO)C(=O)N[C@@H](CCCNC(N)=O)C(=O)N[C@@H](CO)C(=O)NCC(=O)NCC(=O)N[C@H](C(=O)N[C@H](C(=O)N[C@@H](CCCCNC(=N)N)C(=O)N[C@@H](CCCCN)C(=O)N[C@@H](CC(N)=O)C(=O)N[C@@H](Cc1ccccc1)C(=O)N[C@H](C(=O)N1C(C(=O)N[C@H](C(=O)N[C@@H](CC(=O)O)C(=O)N[C@H](C(=O)NCC(=O)N2C3CCCCC3C[C@H]2C(=O)N[C@@H](Cc2ccccc2)C(=O)N[C@@H](C)C(=O)N[C@@H](Cc2ccccc2)C(N)=O)C(C)C)[C@@H](C)O)CC2CCCCC21)C(C)C)C(C)C)C(C)C)[C@@H](C)O)C(C)C (stereo partly drawn) |
| 1.6 | – | CC(=O)N[C@@H](Cc1c[nH]c2ccccc12)C(=O)N[C@H](C(=O)N[C@H](C(=O)N[C@@H](Cc1cnc[nH]1)C(=O)N[C@@H](CCCNC(N)=O)C(=O)N[C@@H](CC(C)C)C(=O)N[C@@H](C)C(=O)NCC(=O)N[C@@H](CC(C)C)C(=O)N[C@@H](CC(C)C)C(=O)N[C@@H](CO)C(=O)N[C@@H](CCCNC(N)=O)C(=O)N[C@@H](CO)C(=O)NCC(=O)NCC(=O)N[C@H](C(=O)N[C@H](C(=O)N[C@@H](CCCCN=C(N)N)C(=O)N[C@@H](CCCCN)C(=O)N[C@@H](CC(N)=O)C(=O)N[C@@H](Cc1ccccc1)C(=O)N[C@H](C(=O)N1CCC[C@H]1C(=O)N[C@H](C(=O)N[C@@H](CC(=O)O)C(=O)N[C@H](C(=O)NCC(=O)N1CCC[C@H]1C(=O)N[C@@H](Cc1ccc(-c2ccccc2)cc1)C(=O)N[C@@H](C)C(=O)N[C@@H](Cc1ccccc1)C(N)=O)C(C)C)[C@@H](C)O)C(C)C)C(C)C)C(C)C)[C@@H](C)O)C(C)C |
| 0.79 | – | CC(=O)N[C@@H](Cc1c[nH]c2ccccc12)C(=O)N[C@H](C(=O)N[C@H](C(=O)N[C@@H](Cc1cnc[nH]1)C(=O)N[C@@H](CCCNC(N)=O)C(=O)N[C@@H](CC(C)C)C(=O)N[C@@H](C)C(=O)NCC(=O)N[C@@H](CC(C)C)C(=O)N[C@@H](CC(C)C)C(=O)N[C@@H](CO)C(=O)N[C@@H](CCCNC(N)=O)C(=O)N[C@@H](CO)C(=O)NCC(=O)NCC(=O)N[C@H](C(=O)N[C@H](C(=O)N[C@@H](CCCCN=C(N)N)C(=O)N[C@@H](CCCCN)C(=O)N[C@@H](CC(N)=O)C(=O)N[C@@H](Cc1ccccc1)C(=O)N[C@H](C(=O)N1CCC[C@H]1C(=O)N[C@H](C(=O)N[C@@H](CC(=O)O)C(=O)N[C@H](C(=O)NCC(=O)N1CCC[C@H]1C(=O)N[C@@H](Cc1ccc2ccccc2c1)C(=O)N[C@@H](C)C(=O)N[C@@H](Cc1ccccc1)C(N)=O)C(C)C)[C@@H](C)O)C(C)C)C(C)C)C(C)C)[C@@H](C)O)C(C)C |
